# Assay results: patent US12016834B2, “Small molecule inhibitors of SLC25A1” (GEORGETOWN UNIVERSITY, priority 2017, dated 2024)
# Columns and labels:
# [1] = test system: MP3 cells; assay: Viability (Crystal Violet) and drug interaction (R index); type: cell-based, human; conditions: single drug, 5 days, monolayer
# Procedure: (§1) Cellular proliferation and cytotoxicity assays. […] The cells were then washed with 1×PBS and fixed with cold 100% methanol at−20° C. for 20 minutes. Methanol was washed off and the cells were stained with 0.5% crystal violet dissolved in 25% methanol and water at 4° C. for 20 minutes. The staining was washed off using deionized (DI) water and the plate was dried overnight. On the second day, 100 mM sodium citrate in 50% ethanol and 50% water was added to the wells and absorbance at 550 nm was measured and corrected with readings at 405 nm. In other experiments, cell viability was assessed by trypan blue exclusion and visual count of the live cells was performed.
# (§2) Statistical methods for drug interactions. […] Sexp/Sobs=1.0 denotes an additive interaction, while >1.0 denotes a synergistic interaction. R index values approaching 2.0 are indicative of strong synergy.
# [2] = test system: MP2 cells; assay: as above; type: cell-based, human; conditions: single drug, 5 days, monolayer
# Procedure: as §1, §2
# [3] = test system: MP1 cells; assay: as above; type: cell-based, human; conditions: single drug, 5 days, monolayer
# Procedure: as §1, §2
# [4] = test system: MP2 cells; assay: Seahorse OCR and ATP in patient-derived cells; type: cell-based, human; conditions: monolayer, chronic treatment for several passages (FIG. 6B)
# Procedure: (§3) Primary lung cancer cultures and GMSC. Surgical samples were minced and digested with dispase (50 U/ml) in DMEM media containing 5% serum for 1 hour. Pleural effusions were centrifuged, washed once in PBS, and then plated. All primary cultures were initially grown on 6-well plates pre-coated with 2% Geltrex (Life Technologies; Carlsbad, CA) and 1% Maxgel (Sigma Aldrich). Maxgel is a humanized matrix, native and non-denatured. The inclusion of Maxgel in the system enhanced the initial attachment of primary tumor cells, partially because Maxgel provides a more natural ECM conformational substrate. The day after plating, the media containing unattached cells was typically transferred to a fresh plate, in most of cases generating new attached cultures. The media (Stem Cell Media) is the DMEM/F12 (Thermo-Fisher #11320-033 basic media) supplemented with the following components: Insulin-Transferrin-Sodium selenite (ITS; 1:1000; Sigma #11884); glutamine (Thermo-Fisher) to 4 mM final concentration; sodium pyruvate (Thermo-Fisher) to 2 mM final concentration; rock inhibitor (Y-27632) 10 micrograms/mL; 2-5% Knock Out Serum Replacement (KNOSR, Thermo-Fisher #10828-028); 0.5% ALBUMAX-(Lipid enriched BSA; Thermo-Fisher #11020-021); N2 Supplement (Thermo-Fisher) 1:250; EGF (5 ng/ml; Peprotech); hFGF (20 ng/ml; Bechman); and IGF-1 (Peprotech; 10-20 ng/ml).
# (§4) Seahorse extracellular flux analyzer experiments. Cells derived from spheres or monolayer cultures were dissociated and plated overnight at 12,000 cells/well in DMEM with 10% FBS, 5 mM glucose, 1 mM pyruvate, 2 mM glutamine.
# (§5) For the mitochondrial stress test, the media was replaced with DMEM without FBS or bicarbonate, containing 5 mM glucose, 1 mM pyruvate, 2 mM glutamine and placed in a CO2 free incubator at 37° C. for 1 hour, and then transferred to the Xf96 extracellular flux analyzer (Agilent; Santa Clara, CA). The program consisted of 3 measurements of OCR/ECAR before the injection of each drug: oligomycin (0.5 μM final concentration), FCCP (2 μM) and rotenone/antimycin (0.5 μM of each). For the glycolysis stress test, cells were plated overnight as above, and the media was washed twice the following day with DMEM without FBS, bicarbonate, glucose, glutamine or pyruvate, and incubated in this media in a CO2 free incubator with/without drug treatments at 37° C. for 4 hours. There were 3 measurements of OCR/ECAR before each injection: glucose (10 mM final concentration), oligomycin (0.5 […] (50 mM). For the analysis of glutamine oxidation, the protocol was the same as the glucose stress test, but with glutamine being the only compound injected (final concentration 4 mM) and OCR/ECAR measured for 60 minutes. When spheres were analyzed, they were dissociated with StemPro® Accutase® (Thermo Scientific; Waltham, MA) and plated under the same conditions as above as for the monolayers the day before the assay (H1299 spheres), or in stem cell media (See Stem Cell Media) with the wells coated in 15 μL of 2% geltrex diluted in DMEM:F12 (Thermo Scientific). The results were normalized to cell number.
# [5] = test system: H1299 cells; assay: Sphere forming / self-renewal assay; type: cell-based, human; conditions: for self-renewal: single-cell derived spheres, Rotenone 10 nM, Oligomycin 1 mM, metformin 3 mM (FIG. 3I)
# Procedure: Growth of monolayers and sphere cultures. Tumor cell lines were grown as monolayers in complete Dulbecco's Modified Eagle's Media (DMEM, Gibco; supplemented with 10% fetal bovine serum and 1% of 5,000 units/mL of penicillin-streptomycin (pen-strep), Gibco). To generate spheroids, cells were grown in Falcon bacteriological petri dishes coated with 2% poly(2-hydroxyethyl methacrylate) dissolved in 100% ethanol. The growth media was DMEM/F12 (Gibco) supplemented with 20 ng/mL of epidermal growth factor (EGF), 5 ng/mL of fibroblast growth factor, 0.375% 100× N2 supplements (Gibco), and 1% pen-strep. Monolayer cells were dissociated using 0.25% trypsin-edta (Gibco), whereas spheroid cultures were dissociated using StemPro Accutase (Gibco). Patient derived cell lines were grown as described below in the primary lung cultures section.
# Self-renewal assays. Tumor cells cultured as spheroids were dissociated and diluted in 2× sphere media containing 1% methyl cellulose, which was previously dissolved in cold DMEM/F12 media. Either 200, 500, or 1000 cells were then plated in each 96 well and were incubated in the presence or absence of drugs, as indicated. The spheres were allowed to form for a period of a week to ten days, at which point they were counted. Six biological replicates were used for quantification of the results.
# [6] = test system: H1299 cells; assay: Proliferation / viability in monolayer (2D) cultures; type: cell-based, human; conditions: for anti-proliferative activity in 2D cultures: Rotenone 10 nM, Oligomycin 1 mM, metformin 3 mM (FIG. 3I)
# Procedure: Cellular proliferation and cytotoxicity assays. The proliferative capacity of cells was assessed by plating cells in triplicate at a concentration of 2,000 to 10,000 cells/well in 96 well plates in triplicate, with or without drug treatment for 48 hours. The cells were then washed with 1×PBS and fixed with cold 100% methanol at−20° C. for 20 minutes. Methanol was washed off and the cells were stained with 0.5% crystal violet dissolved in 25% methanol and water at 4° C. for 20 minutes. The staining was washed off using deionized (DI) water and the plate was dried overnight. On the second day, 100 mM sodium citrate in 50% ethanol and 50% water was added to the wells and absorbance at 550 nm was measured and corrected with readings at 405 nm. In other experiments, cell viability was assessed by trypan blue exclusion and visual count of the live cells was performed.
# [7] = molecular target: SLC25A1 (Homo sapiens, UniProt P53007); assay: Surface plasmon resonance (SPR) binding to recombinant purified SLC25A1; conditions: steady state, 1:1 binding model; human protein
# Sequence of SLC25A1 (P53007 14-311): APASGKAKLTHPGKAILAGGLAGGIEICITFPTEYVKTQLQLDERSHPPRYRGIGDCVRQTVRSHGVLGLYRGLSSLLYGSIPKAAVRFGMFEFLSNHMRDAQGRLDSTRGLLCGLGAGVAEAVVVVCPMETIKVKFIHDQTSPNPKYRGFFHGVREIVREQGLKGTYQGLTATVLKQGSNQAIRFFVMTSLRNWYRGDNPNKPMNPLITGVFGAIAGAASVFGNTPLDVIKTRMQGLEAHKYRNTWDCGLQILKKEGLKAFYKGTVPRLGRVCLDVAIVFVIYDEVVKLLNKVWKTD
# Procedure: Surface Plasmon Resonance (SPR). SPR experiments were performed on a Biacore 4000 instrument at room temperature. The NTA sensorchip surface was activated by injecting 0.5 mM NiCl2 for 1 minute. Histidine-tagged recombinant purified SLC25A1 protein (0.07 mg/ml stock concentration) was used as the ligand to capture on the sensor surface. SLC25A1 was dissolved (1:50 dilution) in PBS-P (20 mM phosphate buffer (pH 7.4), 2.7 mM KCl, 137 mM NaCl and 0.05% surfactant P20) buffer and captured onto spots 2 and 4. SLC25A1 was captured to a level of ˜3000. PBS-P was used as the capture running buffer. Small molecules were used as analytes to flow over the ligand immobilized surface. Spot 3 of all flow cells were used as reference. The calculated theoretical Rmax was ˜30 RU based on a 1:1 interaction. The kinetics experiments were performed in the presence of HBS-P (10 mM HEPES (pH7.4), 150 mM NaCl, and 0.05% surfactant P20). The flow rate of all the solutions was maintained at 30 μL/min. The analyte concentrations were 0 μM, […], 6.25 μM, 12.5 μM, 25 μM, 50 μM, and 100 μM. Analyte concentrations showing signs of aggregation were excluded from the analysis. Data were analyzed by Biacore BiaEvaluation software for 1:1 steady state binding model.
# [8] = test system: MP1 cells; assay: Seahorse OCR and ATP in patient-derived cells; type: cell-based, human; conditions: monolayer, chronic treatment for several passages (FIG. 6A)
# Procedure: as §3, §4, §5
# [9] = test system: MP1 cells; assay: Apoptosis by annexin V and PI flow cytometry; type: cell-based, human; conditions: drug alone
# Procedure: Flow cytometry. Tumor cells were trypsinized and washed in 1×PBS. The cells were then stained with the antibodies of choice: CD166-PE (Biolegend), CD133-647 (Biolegend), or CD44 (Biolegend), in 1% BAS-PBS. The cell cycles of monolayers or spheres of the cells were analyzed by fixing the cells in cold 75% ethanol. The annexin V (Biolegend) and propidium iodide (Biolegend) experiments were carried out.
# [10] = test system: MP1 cells; assay: Tumor xenograft in immuno-compromised mice; type: in vivo
# Procedure: Mice and treatments. To produce tumor xenografts, 5×10^6 cells derived from either monolayer cultures or GMSC expanded spheres were dissociated with Accutase, resuspended in PBS, and injected subcutaneously in the flanks of female balb athymic mice. Once detectable tumors started to form, their sizes were measured with a caliper in three dimensions and mice were randomized in the different treatment groups. […] Cisplatin was administered at 26 mg/kg every three or four days. AZD9291 was administered at 25/mg/Kg every 3 days. Serial measurements were made every day after the identification of the initial tumor mass to determine growth curves in vivo. Tumor volume was calculated using the formula for a prolate spheroid: volume=[…], where a is the width and b is the length. All animals were sacrificed when the tumors exceeded 1.5 cm. At the completion of experiments, tumors were excised, weighed, and the statistical significances of differences in tumor volume were assessed. Animals were monitored once a week for the presence of signs of disease, particularly neurological disturbances or weight loss, and they were weighed periodically.
# Statistics. For the animal studies, power calculations for each treatment group were first determined. The number of animals was calculated to detect a 50% difference at alpha=0.05 and power=0.8. Statistical significance was assessed using both unpaired, two-tailed Student t test, and analysis of variance (ANOVA). Significant differences are indicated using the standard […] scale (P<0.05, significant; P<0.01, highly significant; P<0.001, extremely significant).
# [11] = test system: H1299 cells; assay: Glycolysis: ECAR (Seahorse) and lactic acid levels; type: cell-based, human; conditions: sphere-grown CSCs (FIG. 11C)
# Procedure: Cells, reagents, antibodies, primers. The H1299 cell lines and other cell lines employed in this study were obtained from ATCC or from the tissue culture core facility at LCCC. Cells were grown in Dulbecco's Modified Eagle's Medium (DMEM, 25 mM glucose, with glutamine and pyruvate from Invitrogen; Carlsbad, CA) and supplemented with 10% fetal calf serum (FCS). […] The SLC25A1 specific shRNA vectors were purchased from Sigma. The vector expressing human SLC25A1 untagged or Flag-Myc epitope tagged were from Origene; Rockville, MD (#SC120727 and RC200657, respectively). The anti-SLC25A1 antibody used in immuno-blot was from Santa Cruz Biotech, #sc-86392 employed at 1:1000 dilution. Citrate, lactate, and PFK measurements were performed by using commercially available kits (Biovision (Milpitas, CA)).
# as §4, §5
smiles,measurement,setting,value
"C=CC(=O)Nc1cc(Nc2nccc(-c3cn(C)c4ccccc34)n2)c(OC)cc1N(C)CCN(C)C [AZD9291, osimertinib, reference compound]",response to drug (viability),[1],complete insensitivity
same,response to drug (viability),[2],minimal response
same,response to drug (viability),[3],minimal response
same,mitochondrial respiration after chronic drug treatment,[4],dramatic shift towards mitochondrial respiration
O=C(O)CCCCC(CCSCc1ccccc1)SCc1ccccc1 (centres unmarked) [CPI-613],activity in spheres versus 2D/monolayer cultures,[5]; sphere forming assay compared with monolayer,more effective in sphere forming assays than in monolayer cultures
same,"anti-proliferative activity, ranges of concentrations",[6]; monolayer or methylcellulose single cells (FIG. 3J),anti-proliferative activity at comparable ranges of concentrations
O=C(O)c1ccc(Cl)c(S(=O)(=O)Nc2cccc([N+](=O)[O-])c2)c1 [CTPI-1],"growth inhibitory activity, range of concentrations",[5]; human cells (FIGS. 2A and 2E),millimolar range of concentrations
same,sphere forming capacity,"[5]; one week after treatment, BTA 2 mM, CTPI 1 mM (FIG. 9F)",reduced sphere forming capacity
same,Kd,[7],63.6 µM
"N.N.[Cl][Pt][Cl] [cisplatin, reference compound]",response to drug (viability),[2],minimal response
same,response to drug (viability),[3],minimal response
same,mitochondrial respiration after chronic drug treatment,[8],dramatic shift towards mitochondrial respiration
same,apoptosis,[9],did not induce apoptosis
same,stem cell markers in tumors (immuno-blot),[10]; GMSC-derived tumors (FIG. 7F),enhanced
same,"tumor growth, cisplatin alone",[10]; cisplatin 3 mg/Kg every three days (FIG. 7D),inhibition of tumor growth but this effect was lost over time
same,time until most tumors restarted to grow,[10]; cisplatin alone,two
CN(C)C(=N)N=C(N)N [metformin],self-renewal,[5],significantly reduced self-renewal
same,anti-proliferative activity in 2D cultures,[6],no anti-proliferative activity
same,glycolytic rates,[11],enhanced glycolytic rates
"CC[C@H]1/C=C/C=C/C[C@@H](C)[C@H](O)[C@@](C)(O)C(=O)[C@@H](C)[C@H](O)[C@@H](C)C(=O)[C@@H](C)[C@H](O)[C@@H](C)/C=C/C(=O)O[C@@H]2[C@H](C)[C@H](CC1)O[C@]1(CC[C@H](C)[C@H](C[C@@H](C)O)O1)[C@H]2C [oligomycyn, oligomycin]",self-renewal,[5],significantly reduced self-renewal
same,anti-proliferative activity in 2D cultures,[6],no anti-proliferative activity
C=C(C)[C@H]1Cc2c(ccc3c2O[C@@H]2COc4cc(OC)c(OC)cc4[C@@H]2C3=O)O1 [rotenone],self-renewal,[5],significantly reduced self-renewal
same,anti-proliferative activity in 2D cultures,[6],no anti-proliferative activity
